Test results reported in patent US20080181874A1, “CELL COMPOSITION AND METHOD FOR TREATING CANCER” (priority 2007, published 2008).

Key:
[1] = tested on: viable tumor cells from the right chest wall lesion (mammary carcinoma cells); experiment: In vitro drug response of fresh tumor cells (DISC, MTT and redox assays); format: cell-based, human; design: key to ASSAY RESULT: Sensitive: A cancer cell is said to be sensitive to a drug when the drug inhibits the cell growth or proliferation of the cell to a greater degree than is expected for an appropriate control; Resistant: A cancer cell is said to be sensitive to a drug when the drug inhibits the cell growth or proliferation of the cell to a lesser degree than is expected for an appropriate control; conditions: for ASSAY RESULT: compared with a database of assays with similar technical characteristics; for ASSAY PREDICTED RESPONSE PROBABILITY: predicted from the assay result; for activity in vitro (in words): summary of the table
Description: An unfixed portion of the tumor was further analyzed for response to several drugs. A specimen consisted of 1 piece of yellow, white, and red tissue, obtained from the right chest wall lesion. The piece was soft and sticky in texture, measured 0.8×1.4 cm, and weighed 0.47 gm. The specimen was minced to individual pieces smaller than one mm with surgical scissors and digested for 1.3 hours with collagenase-DNAse. Viable tumor cells were enriched by Ficoll-diatriozate centrifugation. Cytospin slides were prepared, air-dried, and stained with Fast Green/Hamatoxyline-eosin. On this cytology preparation obtained from mechanically-dissociated, enzyme-digested tissue, there was a collection of somewhat pleomorphic tumor cells, consistent with mammary carcinoma cells. Tumor cells were present as loose cell clusters (60% of total tumor cells) and, less commonly, as discohesive single cells (40% of total tumor cells). The tumor cells measured 22-25 microns in diameter and had N/N+C ratios of 0.6-0.8. […] Nucleoli were variably prominent. There were no cells with large clear globular areas or secretory material within the cytoplasm. There was slight cytoplasmic and nuclear molding. Approximately 40% of the enriched tumor cell fraction consisted of normal-appearing connective tissue cells and inflammatory cells.
Cells were plated for testing in 3 different assay endpoints. In the DISC assay, the entire contents of the cell culture were cytocentrifuged onto permanent microscope slides and differentially stained to allow discrimination of normal and neoplastic cells and living and dead cells. […] The MTT assay measures mitochondrial metabolism in the entire cell culture. The redox assay measures total metabolic activity in the entire cell culture, using the Alamar Blue reagent to index the oxygen reduction potential of the culture medium. Because of the very low yield of viable tumor cells, only a small drug panel could be tested. Additionally, some drugs could be tested only in a single assay system.
At the conclusion of the culture period, there was 10% spontaneous attrition in viable tumor cell numbers. Formazan signal in the MTT assay was moderate, reflective of moderate cell metabolism, and allowing for an MTT assay of good quality. Percentage of tumor cells as a percentage of total viable cells at the conclusion of the culture was approximately 85. DISC and MTT assays were in reasonably good agreement. The overall technical quality of the assays was good, marred only by the low yield of tumor cells, which severely limited the scope of testing.
Results were compared with a database of assays which had similar technical characteristics, as the technical characteristics of these assays influence the in vitro results, along with the intrinsic drug resistance of the tumor cells. By controlling for technical characteristics such as spontaneous cell loss, metabolic signal at the conclusion of the culture, and tumor cell clustering, biological correlations are improved.

[2] = tested on: patients with very advanced stage IV breast cancer; conditions: components of the vaccine regimen, one patient each
Description: Breast cancer patients treated with a composition comprising AKCV-1 cells (administered in conjunction with GM-CSF) were evaluated. […] A small cohort of patients with very advanced stage 1V breast cancer were treated with a vaccine consisting of 10-20×10^6 viable, irradiated tumor cells (AKCV-1) admixed with an equal number of cryopreserved peripheral blood lymphocytes obtained by leukapheresis. Patients were pretreated with low-dose cyclophosphamide 300 mg/m^2 48-72 hrs prior to vaccine and received subcutaneous injections of GM-CSF just prior, and for 8 days after, vaccine inoculation.

Row | Compound | ASSAY RESULT [1] | ASSAY PREDICTED RESPONSE PROBABILITY [1] | best drug in vitro ([1]; ranking among the drugs tested) | activity in vitro (in words) [1] | Toxicity [2]
1 | CC(=O)O[C@H]1C(=O)[C@@]2(C)[C@H]([C@H](OC(=O)c3ccccc3)[C@]3(O)C[C@H](OC(=O)[C@H](O)[C@@H](NC(=O)c4ccccc4)c4ccccc4)C(C)=C1C3(C)C)[C@]1(OC(C)=O)CO[C@@H]1C[C@@H]2O [Taxol (Paclitaxel), Paclitaxel] | Sensitive | 62 | best drug in vitro | above-average activity | –
2 | O=P1(N(CCCl)CCCl)NCCCO1 (centres unmarked) [Cyclophosphamide] | Sensitive | 55 | – | above-average activity | exacerbation of pericardial effusion and atrial fibrillation, which spontaneously resolved
3 | N.N.O=C([O-])C1(C(=O)[O-])CCC1.[Pt+2] [(4HC) Carboplatin, Carboplatin] | Resistant | 5 | – | poor activity | –
4 | N.N.[Cl][Pt][Cl] [Cisplatin] | Intermediate | 30 | – | – | –
5 | COc1cc([C@@H]2c3cc4c(cc3[C@@H](O[C@@H]3O[C@@H]5CO[C@@H](C)O[C@H]5[C@H](O)[C@H]3O)[C@H]3COC(=O)[C@H]23)OCO4)cc(OC)c1O [Etoposide] | Sensitive | 55 | – | above-average activity | –
6 | O=c1[nH]cc(F)c(=O)[nH]1 [Fluorouracil] | Intermediate | 20 | – | – | –
7 | GM-CSF: granulocyte macrophage colony stimulating factor, given as subcutaneous injections | – | – | – | – | increasing ascites and abdominal discomfort
8 | COc1cccc2c1C(=O)c1c(O)c3c(c(O)c1C2=O)C[C@@](O)(C(=O)CO)C[C@@H]3O[C@H]1C[C@H](N)[C@H](O)[C@H](C)O1 [Doxorubicin] | Intermediate | 30 | – | – | –
9 | CCC1=C[C@@H]2CN(C1)Cc1c([nH]c3ccccc13)[C@@](C(=O)OC)(c1cc3c(cc1OC)N(C)[C@H]1[C@@](O)(C(=O)OC)[C@H](OC(C)=O)[C@]4(CC)C=CCN5CC[C@]31[C@@H]54)C2 [Vinorelbine] | Intermediate | 30 | – | – | –
